Data on 23 compounds can be found in patent US20250195530A1, “POLQ INHIBITORS” (ASTRAZENECA AB, priority 2022, published 2025).

In one experiment the test system is DLD-1 BRCA2−/− cells. As to the kind of experiment: Homologous recombination synthetic lethal inhibition of proliferation, DLD-1 BRCA2-/- (Cell Titre Glo 3D). Format: cell-based. The following applies: for IC50: Homo sapiens. In a few lines: (§1)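 Proliferation of HR-deficient DLD-1 BRCA2−/− versus isogenic wild-type DLD-1 was measured by ATP luminescence (CellTiter-Glo 3D). Compound exposure lasted 12 or 7 days, respectively, with a fresh dose on day 6. IC50 was the concentration halving maximal signal.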

A further experiment has as its system DLD-1 cells. As to the kind of experiment: Inhibition of proliferation, DLD-1 BRCA2 wt control (Cell Titre Glo 3D). Format: cell-based. The settings on record: Homo sapiens. The essentials: as §1
Where [1] appears, read: DLD-1, first proliferation column (c5), taken as DLD-1 BRCA2-/-, read-out: POLQ PD Prolif Lumin (converted).
Where [2] appears, read: DLD-1, second proliferation column (c6), taken as DLD-1 BRCA2 wt, read-out: POLQ PD Prolif Lumin (converted).
Setting [3] is: DLD-1, 288 h, DLD-1 BRCA2−/− cells, 12 days, read-out: POLQ PD Prolif Lumin BRCA2 −/− mean pIC50 (converted).
Where [4] appears, read: DLD-1, 168 h, DLD-1 BRCA2 wt cells, 7 days, read-out: POLQ PD Prolif Lumin DLD1 mean pIC50 (converted).
[5] abbreviates: DLD-1, DLD-1 BRCA2-/- proliferation, column head only partly shown, read-out: POLQ PD Prolif Lumin (converted).
The mark [6] stands for this setting: DLD-1, DLD-1 BRCA2 wt control proliferation, column head only partly shown, read-out: POLQ PD Prolif Lumin (converted).
Setting [7] is: DLD-1, first proliferation column (c5), DLD-1 BRCA2-/-, read-out: POLQ PD Prolif Lumin (converted).
Where [8] appears, read: DLD-1, second proliferation column (c6), DLD-1 BRCA2 wt control, read-out: POLQ PD Prolif Lumin (converted).
[9] abbreviates: DLD-1, DLD-1 BRCA2 −/−, mean, read-out: POLQ PD Prolif Lumin BRCA2 −/− mean pIC50 (converted).
[10] abbreviates: DLD-1, DLD1 BRCA2 wt, mean, read-out: POLQ PD Prolif Lumin DLD1 mean pIC50 (converted).

Each structure is given as a SMILES string. Where two headings read alike, the source gives them in different places. A value given as a limit tells only on which side of the number the result lay.

As to `Cc1ccnc(Cn2c(-c3ccc(OC[C@H]4CCCN4)cc3Cl)nc3c(OC4(C)CC4)ncnc32)c1` [Example T356, (R)-8-(2-chloro-4-(pyrrolidin-2-ylmethoxy)phenyl)-6-(1-methylcyclopropoxy)-9-((4-methylpyridin-2-yl)methyl)-9H-purine], the figures for the IC50 with DLD-1 BRCA2−/− cells (setting [1]) and in the experiment with DLD-1 cells (setting [2]) were 200 nM and over 10000 nM, respectively.
As to `Cc1cc(OCCCN)ncc1-c1nc2c(OC3(C)CC3)ncnc2n1Cc1ccccc1` [Example G9, 3-((5-(9-benzyl-6-(1-methylcyclopropoxy)-9H-purin-8-yl)-4-methylpyridin-2-yl)oxy)propan-1-amine], the IC50 with DLD-1 BRCA2−/− cells (setting [3]) is 794 nM; in the experiment with DLD-1 cells (setting [4]), 1580 nM.
Regarding `CC1(Oc2ncnc3c2nc(-c2ccc(OCCN4CC(O)C4)cc2Cl)n3Cc2cc(C(F)(F)F)ccn2)CC1` [Example T284, 1-(2-(3-chloro-4-(6-(1-methylcyclopropoxy)-9-((4-(trifluoromethyl)pyridin-2-yl)methyl)-9H-purin-8-yl)phenoxy)ethyl)azetidin-3-ol], the IC50 is 501 nM with DLD-1 BRCA2−/− cells (setting [5]) and over 10000 nM with DLD-1 cells (setting [6]).
Regarding `CC1(Oc2ncnc3c2nc(-c2ccc(OCCN4CCC[C@H]4C(=O)O)cc2Cl)n3Cc2cccc(Cl)c2)CC1` [Example T551, (2-(3-chloro-4-(9-(3-chlorobenzyl)-6-(1-methylcyclopropoxy)-9H-purin-8-yl)phenoxy)ethyl)-L-proline], the IC50 with DLD-1 BRCA2−/− cells (setting [7]) was 316 nM; with DLD-1 cells (setting [8]), over 10000 nM.
For the compound `CNC(=O)COc1ccc(-c2nc3c(OC4(C)CC4)ncnc3n2Cc2ccccc2)c(Cl)c1` [Example D21, 2-(4-(9-benzyl-6-(1-methylcyclopropoxy)-9H-purin-8-yl)-3-chlorophenoxy)-N-methylacetamide], the IC50 with DLD-1 BRCA2−/− cells (setting [3]) is 126 nM; in the experiment on DLD-1 cells (setting [4]), over 10000 nM.
Regarding `Cc1cc(OCCN2CCNCC2)ncc1-c1nc2c(OC3(C)CC3)ncnc2n1Cc1ccccc1` [Example G6, 9-benzyl-8-(4-methyl-6-(2-(piperazin-1-yl)ethoxy)pyridin-3-yl)-6-(1-methylcyclopropoxy)-9H-purine], the IC50 with DLD-1 BRCA2−/− cells (setting [3]) was 501 nM; with DLD-1 cells (setting [4]), over 10000 nM.
For `Cc1ccnc(Cn2c(-c3ccc(OCCN(C)C)cc3Cl)nc3c(OC4(C)CC4)ncnc32)c1` [Example 25, 2-(3-Chloro-4-(6-(1-methylcyclopropoxy)-9-((4-methylpyridin-2-yl)methyl)-9H-purin-8-yl)phenoxy)-N,N-dimethylethan-1-amine], in that order: 100 nM and over 10000 nM.
With `CC(CCOc1ccc(-c2nc3c(OC4(C)CC4)ncnc3n2Cc2cc(C(F)(F)F)cc(C(F)(F)F)c2)c(Cl)c1)C(=O)O` (racemic) [Example T533, 4-(4-(9-(3,5-bis(trifluoromethyl)benzyl)-6-(1-methylcyclopropoxy)-9H-purin-8-yl)-3-chlorophenoxy)-2-methylbutanoic acid], the IC50 in the experiment on DLD-1 BRCA2−/− cells (setting [7]) is 398 nM; with DLD-1 cells (setting [8]), over 3160 nM.
The like results for `Cc1ccnc(Cn2c(-c3ccc(CC(=O)N4C[C@H]5C[C@@H](C4)O5)cc3Cl)nc3c(OC4(C)CC4)ncnc32)c1` [Example T547, rel-1-((1R,5S)-6-oxa-3-azabicyclo[3.1.1]heptan-3-yl)-2-(3-chloro-4-(6-(1-methylcyclopropoxy)-9-((4-methylpyridin-2-yl)methyl)-9H-purin-8-yl)phenyl)ethan-1-one] were, in that order, 501 nM and over 10000 nM.
`Cc1ccnc(Cn2c(-c3ccc(O[C@H]4CCC(=O)NC4)cc3Cl)nc3c(OC4(C)CC4)ncnc32)c1` [Example 41, (S)-5-(3-Chloro-4-(6-(1-methylcyclopropoxy)-9-((4-methylpyridin-2-yl)methyl)-9H-purin-8-yl)phenoxy)piperidin-2-one]: the IC50 was 794 nM with DLD-1 BRCA2−/− cells (DLD-1, 288 h, DLD-1 BRCA2−/−, 12 days, Cell Titre Glo 3D, read-out: POLQ PD Prolif Lumin BRCA2 −/− Mean pIC50 (converted)) and over 10000 nM in the experiment on DLD-1 cells (DLD-1, 168 h, DLD-1 (BRCA2 wt control), 7 days, Cell Titre Glo 3D, read-out: POLQ PD Prolif Lumin DLD1 Mean pIC50 (converted)).
Consider `CC1(Oc2ncnc3c2nc(-c2ccc(OCCN4CCNCC4)cc2Cl)n3Cc2ncc(C(F)(F)F)s2)CC1` [Example T207, 2-((8-(2-chloro-4-(2-(piperazin-1-yl)ethoxy)phenyl)-6-(1-methylcyclopropoxy)-9H-purin-9-yl)methyl)-5-(trifluoromethyl)thiazole], for which the values for the IC50 with DLD-1 BRCA2−/− cells (setting [5]) and in the experiment on DLD-1 cells (setting [6]) were 794 nM and 10000 nM, respectively.
Consider `Cc1ccnc(Cn2c(-c3ccc(CN4CC[C@@H](O)C4)cc3Cl)nc3c(OC4(C)CC4)ncnc32)c1` [Example T353, (R)-1-(3-chloro-4-(6-(1-methylcyclopropoxy)-9-((4-methylpyridin-2-yl)methyl)-9H-purin-8-yl)benzyl)pyrrolidin-3-ol], for which the IC50 is 316 nM with DLD-1 BRCA2−/− cells (setting [1]) and over 10000 nM with DLD-1 cells (setting [2]).
Turning to `C[C@H](CCOc1ccc(-c2nc3c(OC4(C)CC4)ncnc3n2Cc2cc(Cl)ccc2F)c(Cl)c1)C(=O)O` [Example U10, (R)-4-(3-chloro-4-(9-(5-chloro-2-fluorobenzyl)-6-(1-methylcyclopropoxy)-9H-purin-8-yl)phenoxy)-2-methylbutanoic acid], the IC50 in the experiment with DLD-1 BRCA2−/− cells (setting [9]) was 63.1 nM; with DLD-1 cells (setting [10]), over 10000 nM.
In the case of `Cc1cc(N2CCC(N(C)C)CC2)ncc1-c1nc2c(OC3(C)CC3)ncnc2n1Cc1ccccc1` [Example F3, 1-(5-(9-benzyl-6-(1-methylcyclopropoxy)-9H-purin-8-yl)-4-methylpyridin-2-yl)-N,N-dimethylpiperidin-4-amine], the results for the IC50 in the experiment on DLD-1 BRCA2−/− cells (setting [3]) and in the experiment with DLD-1 cells (setting [4]) were 251 nM and over 10000 nM, respectively.
As for `CN(C)CCCOc1ccc(-c2nc3c(OC4(C)CC4)ncnc3n2Cc2cc(Cl)ccn2)c(Cl)c1` [Example 17, 3-(3-Chloro-4-(9-((4-chloropyridin-2-yl)methyl)-6-(1-methylcyclopropoxy)-9H-purin-8-yl)phenoxy)-N,N-dimethylpropan-1-amine], the figures for the IC50 with DLD-1 BRCA2−/− cells (setting [3]) and in the experiment with DLD-1 cells (setting [4]) were 79.4 nM and over 10000 nM, respectively.
Turning to `Cc1ccnc(Cn2c(-c3ccc(O[C@@H]4CCNC4=O)cc3Cl)nc3c(OC4(C)CC4)ncnc32)c1` [Example T186, (R)-3-(3-chloro-4-(6-(1-methylcyclopropoxy)-9-((4-methylpyridin-2-yl)methyl)-9H-purin-8-yl)phenoxy)pyrrolidin-2-one], the IC50 is 251 nM with DLD-1 BRCA2−/− cells (setting [7]) and over 10000 nM in the experiment with DLD-1 cells (setting [8]).
On to `CC(Cc1ccccn1)n1c(-c2ccc(OCCN3CCNCC3)cc2Cl)nc2c(OC3(C)CC3)ncnc21` (single isomer, unassigned) [Example S8, 8-(2-chloro-4-(2-(piperazin-1-yl)ethoxy)phenyl)-6-(1-methylcyclopropoxy)-9-(1-(pyridin-2-yl)propan-2-yl)-9H-purine], for which the “POLQ PD Prolif Lumin BRCA2 −/− mean pIC50” value with DLD-1 BRCA2−/− cells (DLD-1 BRCA2−/− cells, 12 days) came to 5.0. Further, the IC50 in the experiment with DLD-1 cells (setting [4]) is over 10000 nM.
In the case of `CC1(Oc2ncnc3c2nc(-c2ccc(OC[C@H]4CCCN4)cc2Cl)n3Cc2ccccc2)CC1` [Example D25, (R)-9-benzyl-8-(2-chloro-4-(pyrrolidin-2-ylmethoxy)phenyl)-6-(1-methylcyclopropoxy)-9H-purine], the IC50 in the experiment with DLD-1 BRCA2−/− cells (setting [3]) was 100 nM; in the experiment with DLD-1 cells (setting [4]), 2510 nM.
In the case of `COc1ccc(Cl)cc1Cn1c(-c2cccc(CCCC(C)C(=O)O)c2Cl)nc2c(OC3(C)CC3)ncnc21` (racemic) [Example U55, 5-(2-chloro-3-(9-(5-chloro-2-methoxybenzyl)-6-(1-methylcyclopropoxy)-9H-purin-8-yl)phenyl)-2-methylpentanoic acid], the IC50 is 126 nM in the experiment with DLD-1 BRCA2−/− cells (setting [9]) and over 10000 nM in the experiment with DLD-1 cells (setting [10]).
For `C[C@@H](CCOc1ccc(-c2nc3c(OC4(C)CC4)ncnc3n2Cc2cc(Cl)ccc2F)c(Cl)c1)C(=O)O` [Example U11, (S)-4-(3-chloro-4-(9-(5-chloro-2-fluorobenzyl)-6-(1-methylcyclopropoxy)-9H-purin-8-yl)phenoxy)-2-methylbutanoic acid], the values for the IC50 with DLD-1 BRCA2−/− cells (setting [9]) and with DLD-1 cells (setting [10]) were 50.1 nM and over 6310 nM, respectively.
With `CN1CCN(CCOc2ccc(-c3nc4c(OC5(C)CC5)ncnc4n3Cc3ccccn3)c(Cl)c2)CC1` [Example E5, 8-(2-chloro-4-(2-(4-methylpiperazin-1-yl)ethoxy)phenyl)-6-(1-methylcyclopropoxy)-9-(pyridin-2-ylmethyl)-9H-purine], the IC50 was 501 nM in the experiment with DLD-1 BRCA2−/− cells (setting [3]) and 7940 nM with DLD-1 cells (setting [4]).
The like results for `CC1(Oc2ncnc3c2nc(-c2ccc(OCC(=O)O)cc2Cl)n3Cc2ccccc2)CC1` [Example D24, 2-(4-(9-benzyl-6-(1-methylcyclopropoxy)-9H-purin-8-yl)-3-chlorophenoxy)acetic acid] were, in that order, over 10000 nM and over 10000 nM.
Turning to `CC1(Oc2ncnc3c2nc(-c2ccc(C(=O)N4CCNCC4)cc2Cl)n3Cc2ccccc2)CC1` [Example N3, (4-(9-benzyl-6-(1-methylcyclopropoxy)-9H-purin-8-yl)-3-chlorophenyl)(piperazin-1-yl)methanone], the IC50 is 794 nM in the experiment with DLD-1 BRCA2−/− cells (setting [3]) and over 10000 nM with DLD-1 cells (setting [4]).
